Test results as given in US8124793B2, “Derivatives of ethylene methanedisulfonate as cancer chemotherapeutic agents” (priority 2007, dated 2012).

How the values were obtained:
Format in all cases: cell-based
SF-295 = assay: NCI screen, growth of human tumor cells: CNS Cancer SF-295
Procedure, shortened: (§1)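 Under the NCI protocol, every compound is profiled with sixty or more data points. Each point ties a cancer type and a molar screening concentration to a percent growth value.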

OVCAR-3 = assay: NCI screen, growth of human tumor cells: Ovarian Cancer OVCAR-3; settings: OVCAR-3 (Ovarian Cancer), 10^−4 molar
Procedure, shortened: as §1

SK-MEL-28 = assay: NCI screen, growth of human tumor cells: Melanoma SK-MEL-28; settings: SK-MEL-28, 10^−4 molar
Procedure, shortened: as §1

UACC-257 = assay: NCI screen, growth of human tumor cells: Melanoma UACC-257; settings: UACC-257, 10^−4 molar
Procedure, shortened: as §1

ACHN = assay: NCI screen, growth of human tumor cells: Renal Cancer ACHN; settings: ACHN
Procedure, shortened: as §1

SK-MEL-2 = assay: NCI screen, growth of human tumor cells: Melanoma SK-MEL-2; settings: SK-MEL-2 (Melanoma), 10^−4 molar
Procedure, shortened: as §1

RPMI-8226 = assay: NCI screen, growth of human tumor cells: Leukemia RPMI-8226; settings: RPMI-8226 (Leukemia), 10^−4 molar
Procedure, shortened: as §1

MOLT-4 = assay: NCI screen, growth of human tumor cells: Leukemia MOLT-4; settings: MOLT-4 (Leukemia), 10^−4 molar
Description: (§2) In the NCI screening process, each compound was tested and described by a minimum of 60 data points. The test data include, but are not limited to the type of cancer, the molar concentration used in the screen, and the percent growth of the cancer. In some cases, NMR and elemental analysis were used for structural assignment.

UO-31 = assay: NCI screen, growth of human tumor cells: Renal Cancer UO-31; settings: UO-31 (Renal Cancer), 10^−4 molar
Procedure, shortened: as §1

MDA-MB-435 = assay: NCI screen, growth of human tumor cells: Breast Cancer MDA-MB-435; settings: MDA-MB-435, 10^−4 molar
Procedure, shortened: as §1

CAKI-1 = assay: NCI screen, growth of human tumor cells: Renal Cancer CAKI-1; settings: CAKI-1 (Renal Cancer), 10^−4 molar
Procedure, shortened: as §1

SK-OV-3 = assay: NCI screen, growth of human tumor cells: Ovarian Cancer SK-OV-3; settings: SK-OV-3 (Ovarian Cancer), 10^−4 molar
Description: as §2

K562 = assay: NCI screen, growth of human tumor cells: Leukemia K562; settings: K562 (Leukemia), 10^−4 molar
Procedure, shortened: as §1

HCT-116 = assay: NCI screen, growth of human tumor cells: Colon Cancer HCT-116; settings: HCT-116 (Colon Cancer), 10^−4 molar
Procedure, shortened: as §1

AS49/ATCC = assay: NCI screen, growth of human tumor cells: Non-Small Cell Lung AS49/ATCC; settings: AS49/ATCC (Non-Small Cell Lung), 10^−4 molar
Description: as §2

human cancer cells = assay: NCI screen summary over the cancers tested (negative growth of human cancer cells); settings: cancers with negative growth / cancers tested
Description: as §2
The derivatives in the tables are grouped using the same category as in the tables 1-6.

HCT-15 = assay: NCI screen, growth of human tumor cells: Colon Cancer HCT-15; settings: HCT-15, 10^−4 molar
Procedure, shortened: as §1

NCI-H23 = assay: NCI screen, growth of human tumor cells: Non-Small Cell Lung NCI-H23; settings: NCI-H23, 10^−4 molar
Procedure, shortened: as §1

SK-MEL-5 = assay: NCI screen, growth of human tumor cells: Melanoma SK-MEL-5; settings: SK-MEL-5, 10^−4 molar
Procedure, shortened: as §1

HOP-62 = assay: NCI screen, growth of human tumor cells: Non-Small Cell Lung HOP-62; settings: HOP-62, 10^−4 molar
Procedure, shortened: as §1

HL-60 (TB) = assay: NCI screen, growth of human tumor cells: Leukemia HL-60 (TB); settings: HL-60 (TB) (Leukemia), 10^−4 molar
Description: as §2

DU-145 = assay: NCI screen, growth of human tumor cells: Prostate Cancer DU-145; settings: DV-145, 10^−4 molar
Procedure, shortened: as §1

NCI-H460 = assay: NCI screen, growth of human tumor cells: Non-Small Cell Lung NCI-H460; settings: NCI-H460 (Non-Small Cell Lung), 10^−4 molar
Procedure, shortened: as §1

MCF7/ADR-RES = assay: NCI screen, growth of human tumor cells: Breast Cancer MCF7/ADR-RES; settings: MCF7/ADR-RES (Breast Cancer), 10^−4 molar
Procedure, shortened: as §1

SF-539 = assay: NCI screen, growth of human tumor cells: CNS Cancer SF-539
Procedure, shortened: as §1

786-0 = assay: NCI screen, growth of human tumor cells: Renal Cancer 786-0
Description: as §2

SR = assay: NCI screen, growth of human tumor cells: Leukemia SR; settings: SR
Procedure, shortened: as §1

OVCAR-5 = assay: NCI screen, growth of human tumor cells: Ovarian Cancer OVCAR-5; settings: OVCAR-5, 10^−4 molar
Procedure, shortened: as §1

NCI-H322M = assay: NCI screen, growth of human tumor cells: Non-Small Cell Lung NCI-H322M; settings: NCI-H322M, 10^−4 molar
Description: as §2

RXF-393 = assay: NCI screen, growth of human tumor cells: Renal Cancer RXF-393; settings: RXF-393 (Renal Cancer), 10^−4 molar
Procedure, shortened: as §1

SF-268 = assay: NCI screen, growth of human tumor cells: CNS Cancer SF-268; settings: SF-268 (CNS Cancer), 10^−4 molar
Procedure, shortened: as §1

SN12C = assay: NCI screen, growth of human tumor cells: Renal Cancer SN12C; settings: SN12C (Renal Cancer), 10^−4 molar
Procedure, shortened: as §1

MCF 7 = assay: NCI screen, growth of human tumor cells: Breast Cancer MCF 7; settings: MCF 7 (Breast Cancer), 10^−4 molar
Procedure, shortened: as §1

IGROVI = assay: NCI screen, growth of human tumor cells: Ovarian Cancer IGROVI; settings: IGROVI (Ovarian Cancer), 10^−4 molar
Procedure, shortened: as §1

MALME-3M = assay: NCI screen, growth of human tumor cells: Melanoma MALME-3M; settings: MALME-3M, 10^−4 molar
Procedure, shortened: as §1

UACC-62 = assay: NCI screen, growth of human tumor cells: Melanoma UACC-62
Procedure, shortened: as §1

EKVX = assay: NCI screen, growth of human tumor cells: Non-Small Cell Lung EKVX; settings: EKVX (Non-Small Cell Lung), 10^−4 molar
Procedure, shortened: as §1

BT-549 = assay: NCI screen, growth of human tumor cells: Breast Cancer BT-549; settings: BT-549, 10^−4 molar
Procedure, shortened: as §1

OVCAR-4 = assay: NCI screen, growth of human tumor cells: Ovarian Cancer OVCAR-4; settings: OVCAR-4 (Ovarian Cancer), 10^−4 molar
Procedure, shortened: as §1

HT29 = assay: NCI screen, growth of human tumor cells: Colon Cancer HT29; settings: HT29 (Colon Cancer), 10^−4 molar
Description: as §2

KM12 = assay: NCI screen, growth of human tumor cells: Colon Cancer KM12; settings: KM12 (Colon Cancer), 10^−4 molar
Procedure, shortened: as §1

CCRF-CEM = assay: NCI screen, growth of human tumor cells: Leukemia CCRF-CEM; settings: CCRF-CEM (Leukemia), 10^−4 molar
Procedure, shortened: as §1

U-251 = assay: NCI screen, growth of human tumor cells: CNS Cancer U-251; settings: U-251 (CNS Cancer), 10^−4 molar
Procedure, shortened: as §1

M14 = assay: NCI screen, growth of human tumor cells: Melanoma M14; settings: M14, 10^−4 molar
Procedure, shortened: as §1

HCC-2998 = assay: NCI screen, growth of human tumor cells: HCC-2998 (listed under Non-Small Cell Lung); settings: HCC-2998, 10^−4 molar
Description: as §2

COLO205 = assay: NCI screen, growth of human tumor cells: Colon Cancer COLO205; settings: COLO205, 10^−4 molar
Procedure, shortened: as §1

NCI-H522 = assay: NCI screen, growth of human tumor cells: Non-Small Cell Lung NCI-H522; settings: NCI-H522, 10^−4 molar
Procedure, shortened: as §1

NCI-H226 = assay: NCI screen, growth of human tumor cells: Non-Small Cell Lung NCI-H226; settings: NCI-H226 (Non-Small Cell Lung), 10^−4 molar
Procedure, shortened: as §1

What does the source list for CC1=C(CC2(S(=O)(=O)C(F)(F)F)S(=O)(=O)OCCOS2(=O)=O)C(=O)c2ccccc2C1=O [NSC 720682, ethylene trifluorosulfonyl-(3-methyl-1,4-naphtho-2-quinolyl)-1,1-ethanedisulfonate]?
% Growth (SF-295; SF-295, 10^−4 molar): −78%; % Growth (SF-295; SF-295, 10^−5 molar): 53%; percent of growth of human tumor cells (OVCAR-3): −42%; % Growth (SK-MEL-28): −85%; % Growth (UACC-257): −64%; % Growth (ACHN; 10^−4 molar): −21%; % Growth (ACHN; 10^−5 molar): 55%; percent of growth of human tumor cells (SK-MEL-2): −58%; percent of growth of human tumor cells (RPMI-8226): −4%; percent of growth of human tumor cells (MOLT-4): −11%; percent of growth of human tumor cells (UO-31): 29%; % Growth (MDA-MB-435): −86%; percent of growth of human tumor cells (CAKI-1): 16%; percent of growth of human tumor cells (SK-OV-3): 20%; percent of growth of human tumor cells (K562): −11%; percent of growth of human tumor cells (HCT-116): 19%; percent of growth of human tumor cells (AS49/ATCC): −37%; Percentage of cancers showing negative growth cancers tested (human cancer cells; 10^−4 M conc.): 81%; Percentage of cancers showing negative growth cancers tested (human cancer cells; 10^−5 M conc.): 17%; % Growth (HCT-15): −72%; % Growth (NCI-H23): −68%; % Growth (SK-MEL-5): −91%; % Growth (HOP-62): −96%; percent of growth of human tumor cells (HL-60 (TB)): −22%; % Growth (DU-145): −99%; percent of growth of human tumor cells (NCI-H460): −59%; percent of growth of human tumor cells (MCF7/ADR-RES): 1%; % Growth (SF-539; SF-539, 10^−4 molar): −69%; % Growth (SF-539; SF-539, 10^−5 molar): 57%; % Growth (786-0; 786-0, 10^−4 molar): −20%; % Growth (786-0; 786-0, 10^−5 molar): 49%; % Growth (SR; 10^−4 molar): −14%; % Growth (SR; 10^−5 molar): 30%; % Growth (OVCAR-5): −87%; % Growth (NCI-H322M): −97%; percent of growth of human tumor cells (RXF-393): 24%; percent of growth of human tumor cells (SF-268): 1%; percent of growth of human tumor cells (SN12C): −70%; percent of growth of human tumor cells (MCF 7): 1%; percent of growth of human tumor cells (IGROVI): −18%; % Growth (MALME-3M): −89%; % Growth (UACC-62; UACC-62, 10^−4 molar): −73%; % Growth (UACC-62; UACC-62, 10^−5 molar): 55%; percent of growth of human tumor cells (EKVX): −36%; % Growth (BT-549): −78%; percent of growth of human tumor cells (OVCAR-4): −23%; percent of growth of human tumor cells (HT29): −43%; percent of growth of human tumor cells (KM12): 20%; percent of growth of human tumor cells (CCRF-CEM): −5%; percent of growth of human tumor cells (U-251): −36%; % Growth (M14): −90%; % Growth (HCC-2998): −88%; % Growth (COLO205): −88%; % Growth (NCI-H522): −72%; percent of growth of human tumor cells (NCI-H226): −45%
